Values quoted from earlier work in EP3819377A1, “CIRCULAR RNA AND USES THEREOF FOR […]-BINDING PROTEINS” (Justus-Liebig-Universität Gießen, priority 2019, dated 2021).

Details: cationic lipid with a tertiary amine group; WO 2012/031046 A2

CCCCC/C=C\C/C=C\CCCCCCCCOCC(CN(C)C)OCCCCCCCC/C=C\C/C=C\CCCCC (stereo not shown) [DLinDMA, 1,2-dilinoleyloxy-N,N-dimethyl-3-aminopropane]
pKa: 5.8
